Values of other authors, collected in patent publication US8791127B2, “Mucosal bioadhesive slow release carrier for delivering active principles” (BioAlliance Pharma, priority 2006, dated 2014).
≈ marks a conversion by molar mass, not a printed value.

Test system: HSV-1 virus
Conditions: towards HSV-1 virus

Nc1nc2c(ncn2COCCO)c(=O)[nH]1 [acyclovir]
minimal inhibitory concentration (MIC): 0.0225 µg/mL (≈ 0.0999 µM)
